Test results published in ChEMBL document CHEMBL5360556, “An overview of compound properties, multiparameter optimization, and computational drug design methods for PARP-1 inhibitor drugs” (Eur J Med Chem, 2023).
Converted amounts (≈) assume the structure as drawn. Blank lines part the entries; values can stand above or below the compound they belong to.

Tests used:
[1] = biological target: T1, Poly [ADP-ribose] polymerase 1 (Homo sapiens, UniProt P09874); assay: Inhibition of PARP1 (unknown origin) incubated for 60 mins by absorbance based analysis
T1 sequence (P09874 whole entry): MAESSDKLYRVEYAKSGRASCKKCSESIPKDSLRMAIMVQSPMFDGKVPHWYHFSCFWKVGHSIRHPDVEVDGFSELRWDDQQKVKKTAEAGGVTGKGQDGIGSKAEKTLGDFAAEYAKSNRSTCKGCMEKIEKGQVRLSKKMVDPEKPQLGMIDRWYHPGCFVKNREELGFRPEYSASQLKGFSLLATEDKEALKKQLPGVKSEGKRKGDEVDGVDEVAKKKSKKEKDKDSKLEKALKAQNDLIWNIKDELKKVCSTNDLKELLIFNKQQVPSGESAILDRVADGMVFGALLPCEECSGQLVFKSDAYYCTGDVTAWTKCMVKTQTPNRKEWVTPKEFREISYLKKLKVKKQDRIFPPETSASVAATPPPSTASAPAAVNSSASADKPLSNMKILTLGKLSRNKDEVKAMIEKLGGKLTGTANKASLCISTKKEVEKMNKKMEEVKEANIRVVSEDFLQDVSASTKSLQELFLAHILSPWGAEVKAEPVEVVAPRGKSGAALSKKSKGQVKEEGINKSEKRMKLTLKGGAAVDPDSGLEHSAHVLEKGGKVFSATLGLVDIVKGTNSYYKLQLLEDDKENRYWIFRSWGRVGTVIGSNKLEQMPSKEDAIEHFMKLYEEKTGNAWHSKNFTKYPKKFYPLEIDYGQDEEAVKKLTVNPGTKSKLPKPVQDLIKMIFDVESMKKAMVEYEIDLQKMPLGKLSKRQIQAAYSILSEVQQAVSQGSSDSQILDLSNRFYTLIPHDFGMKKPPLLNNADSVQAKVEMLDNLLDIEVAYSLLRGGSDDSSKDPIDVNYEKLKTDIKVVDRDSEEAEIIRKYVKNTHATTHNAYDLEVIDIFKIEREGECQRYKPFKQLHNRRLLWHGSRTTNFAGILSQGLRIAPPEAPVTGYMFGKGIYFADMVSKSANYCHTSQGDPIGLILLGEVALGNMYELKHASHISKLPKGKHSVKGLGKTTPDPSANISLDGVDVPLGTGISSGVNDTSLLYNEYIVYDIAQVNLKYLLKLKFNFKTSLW

[2] = biological target: T1, Poly [ADP-ribose] polymerase 1; assay: Inhibition of PARP1 (unknown origin) incubated for 60 mins by ELISA assay
[3] = biological target: T1, Poly [ADP-ribose] polymerase 1; assay: Inhibition of PARP1 (unknown origin)
[4] = biological target: T1, Poly [ADP-ribose] polymerase 1; assay: Inhibition of PARP1 CD (unknown origin) by colorimetric assay
[5] = biological target: T1, Poly [ADP-ribose] polymerase 1; assay: Inhibition of PARP1 (unknown origin) using Streptavidin-HRP as substrate incubated for 1 hr by absorbance based analysis
[6] = Dissociation constant, pKa of the compound under acidic condition; assay type: physicochemical
[7] = Dissociation constant, pKa of the compound under basic condition; assay type: physicochemical
[8] = biological target: Voltage-gated inwardly rectifying potassium channel KCNH2 (Homo sapiens, UniProt Q12809); assay: Inhibition of hERG; assay type: toxicity
Chain of Voltage-gated inwardly rectifying potassium channel KCNH2 (Q12809 whole entry): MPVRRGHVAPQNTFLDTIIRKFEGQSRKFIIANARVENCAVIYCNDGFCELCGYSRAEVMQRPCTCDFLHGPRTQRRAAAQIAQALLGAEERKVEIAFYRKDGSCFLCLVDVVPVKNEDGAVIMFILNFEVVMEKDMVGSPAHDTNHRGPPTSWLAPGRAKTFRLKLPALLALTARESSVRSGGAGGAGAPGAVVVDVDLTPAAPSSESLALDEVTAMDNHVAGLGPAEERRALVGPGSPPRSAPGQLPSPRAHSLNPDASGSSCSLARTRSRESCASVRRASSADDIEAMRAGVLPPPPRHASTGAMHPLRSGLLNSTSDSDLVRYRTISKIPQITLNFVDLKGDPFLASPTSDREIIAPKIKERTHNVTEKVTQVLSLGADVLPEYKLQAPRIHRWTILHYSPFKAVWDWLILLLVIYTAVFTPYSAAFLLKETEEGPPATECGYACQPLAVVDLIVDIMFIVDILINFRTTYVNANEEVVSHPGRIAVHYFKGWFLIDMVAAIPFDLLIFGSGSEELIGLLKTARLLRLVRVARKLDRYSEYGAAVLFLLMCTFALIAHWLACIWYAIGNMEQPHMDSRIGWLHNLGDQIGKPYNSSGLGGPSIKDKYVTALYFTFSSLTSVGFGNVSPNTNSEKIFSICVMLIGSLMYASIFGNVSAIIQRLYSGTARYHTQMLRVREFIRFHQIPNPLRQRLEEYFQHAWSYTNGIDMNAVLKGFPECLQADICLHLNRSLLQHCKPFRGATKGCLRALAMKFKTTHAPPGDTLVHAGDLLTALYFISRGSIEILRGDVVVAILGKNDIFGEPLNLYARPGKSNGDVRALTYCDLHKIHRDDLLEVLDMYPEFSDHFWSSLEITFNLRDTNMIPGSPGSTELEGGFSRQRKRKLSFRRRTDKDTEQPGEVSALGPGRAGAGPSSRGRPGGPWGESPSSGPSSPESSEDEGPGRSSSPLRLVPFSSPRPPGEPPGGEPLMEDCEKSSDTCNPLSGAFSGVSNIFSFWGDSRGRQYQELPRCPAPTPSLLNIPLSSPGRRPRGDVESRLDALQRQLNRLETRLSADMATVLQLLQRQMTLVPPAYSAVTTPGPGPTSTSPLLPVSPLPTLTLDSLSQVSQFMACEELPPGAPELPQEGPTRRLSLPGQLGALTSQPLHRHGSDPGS

[9] = Lipophilicity, logD of compound at pH 7.4; assay type: physicochemical; conditions: buffer
[10] = Solubility of the compound; assay type: physicochemical
[11] = Lipophilicity, logP of compound; assay type: physicochemical; conditions: octanol/water

- IC50 [1]: 1600 nM
Structure (SMILES): C[N+]1(C)CCc2cc(O)c(O)cc2[C@H]1Cc1ccc(O)c(O)c1

- IC50 [2]: 560 nM
Structure (SMILES): O=C(CSc1nc2sc3c(c2c(=O)[nH]1)CCC3)N(CCO)CCO

- IC50 [3]: 19 nM
Structure (SMILES): O=C1CCc2cc(-c3ccccc3F)ccc2C2(CCCCC2)N1

- IC50 [4]: 2.31 nM
Structure (SMILES): CC1=C(NN)SC(NNS(=O)(=O)c2ccc3[nH]c(=O)c(=O)[nH]c3c2)N1C(=O)c1ccccc1 (configuration not stated)

- IC50 [4]: 8.25 nM
Structure (SMILES): CC(=O)C1=C(C)N(C(=O)c2ccccc2)C(NNS(=O)(=O)c2ccc3[nH]c(=O)c(=O)[nH]c3c2)S1 (configuration not stated)

- IC50 [5]: 36.7 nM
Structure (SMILES): O=C(NN1CCCC1)c1cc(Cc2n[nH]c(=O)c3cccnc23)ccc1F

- IC50 [1]: 960 nM
Structure (SMILES): C[N+]12CCc3cc(O)c(O)cc3C1Cc1cc3c(cc12)OCO3 (configuration not stated)

- IC50 [4]: 8.73 nM
Structure (SMILES): Cc1cc(O)nn1S(=O)(=O)c1ccc2[nH]c(=O)c(=O)[nH]c2c1

- IC50 [2]: 63000 nM
Structure (SMILES): CCN(c1ccccc1)S(=O)(=O)c1ccc(NC(=O)C2CC(=O)c3cc(C)c(C)cc3O2)cc1 (configuration not stated)

- IC50 [4]: 6.35 nM
Structure (SMILES): CC1=CSC(NNS(=O)(=O)c2ccc3[nH]c(=O)c(=O)[nH]c3c2)N1C(=O)c1ccccc1 (configuration not stated)

Structure (SMILES): Oc1ccc(C2CNCc3c(O)cccc32)cc1O (racemic)
- IC50 [1]: 240 nM

- pKa [6]: 14
- pKa [7]: 10.1
- logD [9]: -0.11
- solubility [10]: 700 µg/mL (≈ 2180 µM)
- logP [11]: 2.47
Structure (SMILES): NC(=O)c1cccc2cn(-c3ccc([C@@H]4CCCNC4)cc3)nc12 [NIRAPARIB]
- IC50 [8]: 10000 nM

- pKa [6]: 9.96
- pKa [7]: 0.9
- logD [9]: 1.96
- logP [11]: 1.96
Structure (SMILES): O=C(c1cc(Cc2n[nH]c(=O)c3ccccc23)ccc1F)N1CCN(C(=O)C2CC2)CC1 [OLAPARIB]

Structure (SMILES): CNCc1ccc(-c2[nH]c3cc(F)cc4c3c2CCNC4=O)cc1 [RUCAPARIB]
- pKa [6]: 13.2
- pKa [7]: 9.32
- IC50 [8]: 23000 nM
- logD [9]: 0.55
- solubility [10]: 1000 µg/mL (≈ 3090 µM)
- logP [11]: 2.45

- pKa [6]: 9.48
- pKa [7]: 1.66
- logD [9]: 2.11
- solubility [10]: 17 µg/mL (≈ 44.7 µM)
- logP [11]: 2.11
Structure (SMILES): Cn1ncnc1[C@H]1c2n[nH]c(=O)c3cc(F)cc(c23)N[C@@H]1c1ccc(F)cc1 [TALAZOPARIB]
